{"source": "patent US5736394A", "about": "“Cellular uptake of modified peptides” (Boston Biomedical Research Institute, priority 1996, dated 1998)", "key": {"HL60 cells [1]": {"tested_on": "HL60 cells", "assay": "Inhibition of HL60 cell proliferation ([3H]TdR incorporation at 24 h) after photolysis of intracellular Bz-peptide at 365 nm", "type": "cell-based, human", "conditions": "for cytostatic response / inhibition of DNA synthesis: irradiation immediately after plating, FIG. 2A", "source_text": "Experiments were designed to determine whether, after admission of the target-specific Bz-peptide molecules into proliferating cells, their photolysis in situ would induce a cytostatic response. Such a response would implicate the irreversible inhibition of ras-prenylating enzymes. […] It is important to note that, regardless of treatment, Trypan blue-assessed viability remained above 90% under the conditions employed for all experiments shown in FIG. 2A,B.\nTwo fundamental variations were performed. For FIG. 2A, cells were incubated in serum-free medium in the presence of a Bz-peptide, mevinolin, or, as control, with the DMSO delivery vehicle alone, for 15 min at room temp., after which fetal bovine serum was added to 10% (v/v) followed by plating in triplicate at 0.5 mL/well. These plates were immediately irradiated at 365 nm for 15 min to excite the intracellular Bz photophore, then placed in the incubator at 37° C. for 24 h. For FIG. 2B, the same procedure was followed except that, after serum replenishment and plating, cells were first incubated at 37° C. for 1 h, then removed from the incubator, irradiated for 15 min, and returned to incubation for 24 h. The 1 h incubation prior to irradiation was performed to assess, indirectly, the potential for intracellular destruction (or other means of depletion) of the Bz-peptides. At 24 h after serum replenishment, all cells were pulse-labeled with [^3 H]TdR to record the effect of intracellular Bz-peptide photolysis (as well as of mevinolin treatment, the effects of which have been well documented) on DNA synthesis and, thereby, on cell proliferation."}, "HL60 cells [2]": {"tested_on": "HL60 cells", "assay": "HL60 cell proliferation ([3H]TdR incorporation into DNA) after 18 h incubation, plus or minus irradiation", "type": "cell-based, human", "experimental": "A set of experiments were designed to assess the effects of Bz-peptides on ras-mediated signaling of cell proliferation, under conditions where incubations of cells, post peptide addition, were shorter (18 h) than that found optimal for their population doubling (~24 h). Experiments were intended to reveal early differences in the relative stability of the Bz-peptides, as judged by their effects on inhibition of cell proliferation, plus or minus irradiation.\nHL60 cells were exposed to Bz-ACVIM SEQ ID NO: 4 (FPTase-specific), Bz-ACVIL SEQ ID NO: 5 (GGPTase-I-specific), the benzophenone photophore (BBA), mevinolin (proliferation inhibition control), or the DMSO vehicle alone, plus or minus irradiation. After incubation for 18 h at 37° C., irradiated and non-irradiated cultures were assayed for [^3 H]TdR incorporation into DNA (a measure of proliferation)."}, "HL-60 cells": {"tested_on": "HL-60 cells", "assay": "Cellular uptake of [3H]Bz-peptides / [3H]BBA by HL60 cells (silicone oil centrifugation, cell pellets counted)", "experimental": "Initial experiments were designed to determine whether the Bz-modified peptide could cross cellular membranes. The methods employed for these studies are given briefly. First, 2×10^6 HL-60 cells/mL were incubated in serum free medium at 37° C. together with either [^3 H]-benzoylbenzoic acid ([^3 H]BBA) or the [^3 H]Bz-peptideover a 45 min time course. Aliquots (0.5 mL) of the cell suspension were removed at the times shown and separated from the aqueous medium by centrifugation through a silicone oil barrier. The cell pellets in the oil layer were counted.\nThe volume of an average HL60 cell can be estimated as 4.2×10^-6 μL. Thus, the pellet volume occupied by a […] suspension of 10^6 cells is […]."}, "[3]": {"conditions": "10 μM, 1 h delay at 37° C. before photolysis, 24 h, FIG. 2B"}}, "note": "Where no end group is shown, it is not given here. The star is where a group is joined. Benzoyl(4-benzoyl) = O=C(c1ccccc1)c1ccc(C(=O)*)cc1", "data": [{"molecule": "mevinolin [reference compound]", "values": [{"measurement": "growth inhibition", "setting": "HL60 cells [1]; 10 μM, FIGS. 2A & 2B, whether irradiation was delayed for 1 h or not", "result": "apparent"}, {"measurement": "relative extent of inhibition of cell proliferation", "setting": "HL60 cells [2]; whether or not cells were irradiated, 2nd bar both panels", "result": "~ 50%"}]}, {"molecule": "Bz-ACVIL: Bz-derivatized pentapeptide ACVIL; GGPTase-I-specific photoaffinity inhibitor ({Benzoyl(4-benzoyl)}-ACVIL)", "values": [{"measurement": "influx and equilibration into cells", "setting": "HL-60 cells", "result": "behaved similarly"}, {"measurement": "inhibitory effect", "setting": "HL60 cells [1]; [3]", "result": "ineffective"}, {"measurement": "cytostatic response", "setting": "HL60 cells [1]; 10 μM, 24 h", "result": "did not do so"}, {"measurement": "loss of the inhibitory capacity manifest in FIG. 2A", "setting": "HL60 cells [1]; 100 μM, 1 h delay before photolysis, FIG. 2B relative to FIG. 2A", "result": "about 60%"}, {"measurement": "cytostatic response", "setting": "HL60 cells [1]; 100 μM, 24 h", "result": "clear cytostatic response"}]}, {"molecule": "Bz-ACVIM: Bz-derivatized pentapeptide; benzophenone moiety amide-coupled to the N-terminus of ACVIM; FPTase-specific photoaffinity inhibitor ({Benzoyl(4-benzoyl)}-ACVIM)", "values": [{"measurement": "influx and equilibration into cells", "setting": "HL-60 cells", "result": "extremely rapid"}, {"measurement": "time to reach maximum levels of influx and equilibration", "setting": "HL-60 cells", "result": "≤ 15", "unit": "min"}, {"measurement": "inhibitory effect", "setting": "HL60 cells [1]; [3]", "result": "much lower inhibitory effect"}, {"measurement": "inhibition of DNA synthesis", "setting": "HL60 cells [1]; 10 μM, 24 h", "result": "75-80%"}, {"measurement": "cytostatic effect", "setting": "HL60 cells [1]; 100 μM, 1 h delay at 37° C. before photolysis, 24 h, FIG. 2B", "result": "remained at least as powerful as in FIG. 2A"}, {"measurement": "inhibition of DNA synthesis", "setting": "HL60 cells [1]; 100 μM, 24 h", "result": "75-80%"}]}, {"molecule": "APRTPGGRR", "values": [{"measurement": "intracellular accumulation", "setting": "HL-60 cells; 48 μM, HL60 cells, lowest trace in FIG. 1B", "result": "no evidence for intracellular accumulation"}]}, {"molecule": "O=C(O)c1ccc(C(=O)c2ccccc2)cc1", "note": "[BBA, 4-benzoylbenzoic acid]", "values": [{"measurement": "effect on the cell's capacity for proliferation", "setting": "HL60 cells [2]; whether cells were irradiated or not, 6th bar both panels", "result": "no effect"}]}]}
